# Measurements: patent US12343416B2, “Skin engaging member for razor cartridge comprising skin active ingredient” (BIC-VIOLEX S.A., priority 2019, dated 2025)
# How the values were obtained:
# [1] = type: physicochemical
# Source text: Again, without being bound to theory, one could explain this thermostability by the low volatility related with high molecular weight. Indeed, Glycyrrhizic acid and its salts are widely used in food applications that are intended to be baked and keeping the sweetness.
# [2] = Retention of skin active ingredient after extrusion of the skin engaging member (process tolerance / thermal stability); type: physicochemical; settings: initial concentration 1% in HIPS/PEG/BHT blend; heated to melt and extruded via rotating screw; 150° C. to 300° C., 250-2000 bar
# Protocol: Therefore and more particularly, throughout the present description and claims, the expression “thermally tolerant” or “thermally stable” or “process tolerant” should thus be understood that the skin engaging member retains the contained skin active ingredient, after a thermal treatment/processing at about 150 to 300° C., from 2 to 15 minutes and pressure conditions between 250-2000 bar, in processes such as extrusion or injection or injection-molding, in concentration that is detected quantitatively at the end product/article, by applying analytical chemistry methods, such as liquid chromatography. In embodiments that the skin engaging member comprises skin active ingredient capable of treating and/or preventing skin redness or skin irritation and being selected from the group consisting of a) at least one terpenic acid derivative, b) strombine or salt of strombine, combined with a clay, and c) mixtures thereof, the concentration of the skin active ingredient retained after the thermal treatment/processing is about 0.001-100%, particularly 20-80%, more particularly 20-70%, of the initial quantity of skin active ingredient added. […]
# The quantity of the skin active ingredient in the skin engaging member can be measured/evaluated by (chromatographic) methods known to the skilled person depending on the nature of the active ingredient. […]
Compound,heat stability/tolerance [1],"reduction of the amount of skin active ingredient compared to the initial concentration, measured in the final skin engaging member [2] [%]"
"CC1(C)[C@@H](O[C@H]2O[C@H](C(=O)O)[C@@H](O)[C@H](O)[C@H]2O[C@@H]2O[C@H](C(=O)O)[C@@H](O)[C@H](O)[C@H]2O)CC[C@]2(C)[C@H]3C(=O)C=C4[C@@H]5C[C@@](C)(C(=O)O)CC[C@]5(C)CC[C@@]4(C)[C@]3(C)CC[C@@H]12 [Glycyrrhizic acid, (3-beta, 20-beta)-20-carboxy-11-oxo-30-norolean-12-en-β-yl 2-O-beta-D-glucopyranuronosyl-alpha-D-glucopyranosiduronic]",heat stable/tolerant,
C[C@H]1[C@H](C)CC[C@]2(C)CC[C@]3(C)C(=CC[C@@H]4[C@@]5(C)CC[C@@H](O)[C@](C)(C(=O)O)[C@@H]5CC[C@]43C)[C@H]12 [boswellic acid],,52.2
Dipotassium Glycyrrhizinate/Glycyrrhizate,heat stable/tolerant,30
